The results in this text go back to patent US9796679B2, “Type 4 prepilin peptidase inhibitors and methods of use” (priority 2014, dated 2017).

This experiment deals with T1, TcpJ (Vibrio cholerae serotype O1, UniProt A5F385).
T1 construct: made in house; host or cells: E. coli JM109 carrying pCL9 (total membrane fraction)
T1 sequence (A5F385 1-253): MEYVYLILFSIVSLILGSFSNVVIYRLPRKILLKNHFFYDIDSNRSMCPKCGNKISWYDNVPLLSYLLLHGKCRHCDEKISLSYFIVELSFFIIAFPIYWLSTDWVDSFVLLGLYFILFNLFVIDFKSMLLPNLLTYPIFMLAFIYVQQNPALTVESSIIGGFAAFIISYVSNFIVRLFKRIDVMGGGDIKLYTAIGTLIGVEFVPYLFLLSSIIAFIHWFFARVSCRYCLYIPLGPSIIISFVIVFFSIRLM
Nature of the experiment: In vitro TcpA prepilin cleavage assay with inhibitors. The experiment is classed as biochemical. The following applies: compared to compounds where R is methyl. On the procedure:
By way of illustration, the effect of inhibitors on the peptidase activity of TcpJ can be determined by incubating the inhibitor with an amount of membrane preparation known to contain 1 unit of activity of TcpJ for 30 minutes at room temperature. The TcpJ/inhibitor mixture is then tested for peptidase activity. Amounts of cleaved TcpA prepilin can be quantitated and applied to the formula: % cleavage=(amount of cleaved TcpA in inhibition assay/amount of cleaved TcpA in no inhibitor control assay)×100.
Membrane preparations were prepared according to a modified cell fractionation protocol (Pfau (1998) J. Bact. 180(17):4724-33). Overnight cultures were placed on ice for 20 minutes then pelleted at 5000×g for 10 minutes. The cell pellet was resuspended in 1 ml 200 mM Tris pH 8.0 to which 1 ml 50 mM Tris pH 8.0, 1 M sucrose, 2 ml water, 20 μl 0.5 M EDTA, and 20 μl lysozyme (10 mg/ml) were added. The cell suspension was allowed to incubate on ice for 30 minutes. Then, 100 μl 1 M MgSO4 was added and the suspension was pelleted at 5000×g for 10 minutes. […]
A membrane preparation from the E. coli strain K38 p3Z-A, pGP1-2, which was determined to contain 0.2 μg TcpA prepilin/μl, was the source of prepilin in the in vitro TcpJ proteases assay instead of purified prepilin. […]

Regarding `Nc1cc[n+](Cc2ccc(-c3ccc(C[n+]4ccc(N)c5ccccc54)cc3)cc2)c2ccccc12` [TC-7], the IC50 value result is “lower IC50 value compared to compounds where R is methyl”.
